Reference: US7713954B2, “Compositions and methods for treating cognitive disorders” (Roche Palo Alto LLC, priority 2004, dated 2010)
Read-outs that look alike come from different tables or passages of the source.

What was measured:
[1] = molecular target: T1, Histamine H1 receptor (Cavia porcellus, UniProt P31389); test: Affinity to Histamine H1 receptor in guinea-pig cerebellum; format: binding; details: read-out: Receptor Affinity (pKi) Histamine H1 (converted)
T1 construct: from tissue; host or cells: guinea-pig cerebellum
T1 sequence (P31389 whole entry): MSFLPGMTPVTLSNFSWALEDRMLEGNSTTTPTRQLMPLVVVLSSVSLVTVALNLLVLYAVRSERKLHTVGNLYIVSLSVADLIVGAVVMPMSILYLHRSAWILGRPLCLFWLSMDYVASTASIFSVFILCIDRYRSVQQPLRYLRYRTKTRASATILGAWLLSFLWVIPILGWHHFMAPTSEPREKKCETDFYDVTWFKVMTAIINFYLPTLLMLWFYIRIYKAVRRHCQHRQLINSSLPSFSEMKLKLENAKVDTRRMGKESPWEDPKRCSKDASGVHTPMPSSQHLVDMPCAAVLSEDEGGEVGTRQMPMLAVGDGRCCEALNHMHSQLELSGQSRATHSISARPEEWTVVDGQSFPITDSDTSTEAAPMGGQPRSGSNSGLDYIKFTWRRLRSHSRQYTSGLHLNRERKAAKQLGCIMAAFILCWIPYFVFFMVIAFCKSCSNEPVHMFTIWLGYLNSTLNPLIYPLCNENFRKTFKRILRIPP

[2] = molecular target: T2, human recombinant M1 (Homo sapiens, UniProt P11229); test: Binding affinity at Muscarinic M1 receptor; details: read-out: Receptor Affinity (pKi) Muscarinic M1 (converted)
T2 sequence (P11229 1-460): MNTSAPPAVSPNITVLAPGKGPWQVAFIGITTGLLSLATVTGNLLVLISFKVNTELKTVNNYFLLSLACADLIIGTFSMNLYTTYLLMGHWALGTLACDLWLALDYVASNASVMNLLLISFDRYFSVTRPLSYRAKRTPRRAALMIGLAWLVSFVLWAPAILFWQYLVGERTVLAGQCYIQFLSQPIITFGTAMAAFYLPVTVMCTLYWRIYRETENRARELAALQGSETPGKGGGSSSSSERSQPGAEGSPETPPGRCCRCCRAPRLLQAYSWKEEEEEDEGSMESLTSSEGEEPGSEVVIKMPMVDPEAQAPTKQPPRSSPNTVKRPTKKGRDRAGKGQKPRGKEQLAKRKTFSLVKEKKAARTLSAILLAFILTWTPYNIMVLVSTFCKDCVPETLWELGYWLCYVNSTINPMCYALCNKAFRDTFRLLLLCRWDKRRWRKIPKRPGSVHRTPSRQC

[3] = molecular target: T3, human recombinant M2 (Homo sapiens, UniProt P08172); test: Binding affinity at Muscarinic M2 receptor; details: read-out: Receptor Affinity (pKi) Muscarinic M2 (converted)
T3 sequence (P08172 1-466): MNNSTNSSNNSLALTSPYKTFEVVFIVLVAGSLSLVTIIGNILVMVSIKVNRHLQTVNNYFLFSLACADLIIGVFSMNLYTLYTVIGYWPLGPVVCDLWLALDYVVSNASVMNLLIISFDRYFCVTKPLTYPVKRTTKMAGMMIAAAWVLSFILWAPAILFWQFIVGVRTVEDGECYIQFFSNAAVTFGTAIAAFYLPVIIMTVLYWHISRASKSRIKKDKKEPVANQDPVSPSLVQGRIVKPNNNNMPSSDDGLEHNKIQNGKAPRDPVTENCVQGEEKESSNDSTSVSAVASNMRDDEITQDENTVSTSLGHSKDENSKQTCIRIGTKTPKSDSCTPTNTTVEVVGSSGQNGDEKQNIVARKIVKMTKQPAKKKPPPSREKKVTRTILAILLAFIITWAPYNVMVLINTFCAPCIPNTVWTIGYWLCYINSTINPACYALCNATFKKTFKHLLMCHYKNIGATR

[4] = test system: male Wistar rats; test: Novel object recognition model, scopolamine-induced memory impairment; format: in vivo, rat; details: for reversal of the memory impairment induced by scopolamine (discrimination index d2): 90 or 60 mins prior to scopolamine 0.1 mg/kg ip; for reversal of scopolamine-induced memory impairment (discrimination index d2): with scopolamine 0.1 mg/kg sc, 30 mins prior to re-release
Experimental: Twenty-four 5-month-old male Wistar rats were used. The animals were housed individually in standard Makrolon cages on sawdust bedding in an air-conditioned room (about 20° C.). They were kept under a 12/12-hour light/dark cycle (lights on from 18.00 to 6.00 h) and had free access to food and water. Rats were housed and test in different rooms. A radio, which was playing softly, provided background noise in all rooms. All testing was done between 9.00 and 16.00 h.
Scopolamine hydrobromide was prepared daily and dissolved in saline. […] (injection volume 1 ml/kg) 30 minutes before trial 1. Test compounds were prepared daily and dissolved in saline, and the pH was adjusted to pH 5-7 using (0.1 N) NaOH. The compounds were administered orally or i.p. over a range of doses to n=12-24 animals per dose (injection volume 1 ml/kg). Time of dosing prior to first trial (T1) can be chosen to match the expected plasma Cmax for the compound. Administration was always given i.p. (injection volume 1 ml/kg).
The object recognition test was performed as described by Ennaceur and Delacour, Behav. Brain Res., 1988, 31, 47-59. This test measures the memory of an animal, by testing the ability of the animal to recognize that there is a new object in its environment. The apparatus consisted of a circular arena, 83 cm in diameter. Half of the 40 cm high wall was made of gray polyvinyl chloride, the other half of transparent polyvinyl chloride. The light intensity was equal in the different parts of the apparatus. Two objects were placed in a symmetrical position about 10 cm away from the gray wall. Each object was available in triplicate. Four different sets of objects were used: 1) a cone consisting of a gray polyvinyl chloride base (maximal diameter 18 cm) with a brass collar on top (total height 16 cm), 2) a standard 1 l transparent glass bottle (diameter 10 cm, height 22 cm) filled with sand, 3) a massive metal block (10.0×5.0×7.5 cm) with two holes (diameter 1.9 cm), and 4) a massive aluminum block with a tapering top (13.0×8.0×8.0 cm). A rat could not displace the objects. Fluorescent red tubes and a light bulb provided a constant illumination of about 20 lux on the floor of the apparatus.
A testing session comprised two trials. The duration of each trial was 3 min. During the first trial (T1) the apparatus contained two identical objects (samples). A rat was always placed in the apparatus facing the wall at the middle of the front (transparent) segment. After the first exploration period the rat was put back in its home cage. Subsequently, after a predetermined delay interval, the rat was put back in the apparatus for the second trial (T2), but now with two dissimilar objects, a familiar one (the sample) and a new object. The times spent in exploring each object during T1 and T2 were recorded manually with a personal computer. “Exploration” was defined as directing the nose to the object at a distance of no more than 2 cm and/or touching the object with the nose. Sitting on the object was not considered as exploratory behavior. In order to avoid the presence of olfactory trails the objects were always thoroughly cleaned. […]
Rats were treated with Compound 18 (0.3, 1, 3 mg/kg po) or Compound 3 (0.1, 0.3, 1 and 3 mg/kg i.p.) 90 or 60 mins prior to administration of scopolamine (0.1 mg/kg ip). The time each animal spent investigating the novel and familiar objects in the arena during a over a 3 min interval, commencing 30 minutes after the administration of scopolamine, was scored. […]

[5] = molecular target: human recombinant D2 receptor (Homo sapiens, UniProt P14416); test: Ligand binding affinity at Dopamine D2 receptor; details: read-out: Receptor Affinity (pKi) Dopamine D2 (converted)
Sequence of human recombinant D2 receptor (P14416 whole entry): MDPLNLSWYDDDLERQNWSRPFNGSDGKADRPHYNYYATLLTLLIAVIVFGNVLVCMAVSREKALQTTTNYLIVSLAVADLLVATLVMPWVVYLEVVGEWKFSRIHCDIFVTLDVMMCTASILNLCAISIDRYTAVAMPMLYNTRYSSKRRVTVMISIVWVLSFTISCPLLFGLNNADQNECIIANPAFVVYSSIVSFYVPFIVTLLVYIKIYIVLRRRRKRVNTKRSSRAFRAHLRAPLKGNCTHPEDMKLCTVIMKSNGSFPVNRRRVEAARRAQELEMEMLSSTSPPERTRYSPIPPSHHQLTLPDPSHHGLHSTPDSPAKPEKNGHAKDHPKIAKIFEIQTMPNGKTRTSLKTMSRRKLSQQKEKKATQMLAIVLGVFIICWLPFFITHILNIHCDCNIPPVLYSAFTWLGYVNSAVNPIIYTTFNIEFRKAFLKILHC

[6] = molecular target: human recombinant 5-HT2A (Homo sapiens, UniProt P28223); test: Receptor affinity at 5-HT2A (Table 1; only a FLIPR calcium method is described); format: binding; details: read-out: Receptor Affinity (pKi) 5-HT2A (converted)
Sequence of human recombinant 5-HT2A (P28223 whole entry): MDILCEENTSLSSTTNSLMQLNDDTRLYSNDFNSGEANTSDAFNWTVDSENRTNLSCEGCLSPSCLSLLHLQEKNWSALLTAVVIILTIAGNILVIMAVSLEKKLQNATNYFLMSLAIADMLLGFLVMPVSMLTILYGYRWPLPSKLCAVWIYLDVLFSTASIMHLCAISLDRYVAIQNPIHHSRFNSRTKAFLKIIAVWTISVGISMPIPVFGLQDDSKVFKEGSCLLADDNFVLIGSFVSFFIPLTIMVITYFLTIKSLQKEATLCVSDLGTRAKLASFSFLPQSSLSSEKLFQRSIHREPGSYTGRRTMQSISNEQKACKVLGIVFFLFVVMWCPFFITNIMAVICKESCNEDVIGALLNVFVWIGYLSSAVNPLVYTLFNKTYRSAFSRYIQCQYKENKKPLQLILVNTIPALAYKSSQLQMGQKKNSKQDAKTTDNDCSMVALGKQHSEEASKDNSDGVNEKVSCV

[7] = molecular target: T4, human recombinant 5-HT2C (Homo sapiens, UniProt P28335); test: Receptor affinity at 5-HT2C (Table 1; only a FLIPR calcium method is described); format: binding
T4 sequence (P28335 33-458): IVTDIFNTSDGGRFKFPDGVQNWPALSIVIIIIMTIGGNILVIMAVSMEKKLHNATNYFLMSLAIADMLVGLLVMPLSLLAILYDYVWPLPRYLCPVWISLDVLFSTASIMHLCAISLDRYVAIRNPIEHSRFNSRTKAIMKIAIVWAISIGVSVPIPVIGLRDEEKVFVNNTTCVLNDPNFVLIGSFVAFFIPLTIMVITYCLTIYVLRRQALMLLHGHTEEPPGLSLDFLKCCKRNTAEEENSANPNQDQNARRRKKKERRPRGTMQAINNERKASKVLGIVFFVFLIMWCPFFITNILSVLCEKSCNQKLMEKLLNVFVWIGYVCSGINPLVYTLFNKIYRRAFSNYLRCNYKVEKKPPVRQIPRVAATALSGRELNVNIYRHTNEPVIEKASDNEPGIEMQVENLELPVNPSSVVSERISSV

[8] = molecular target: T5, human 5-HT6 (Homo sapiens, UniProt P50406); test: Competition binding with [3H]-LSD at membranes of HEK-293 cells expressing human 5-HT6
T5 construct: expressed in transfected cells; host or cells: HEK-293 (HEK293-h5-HT6)
T5 sequence (P50406 whole entry): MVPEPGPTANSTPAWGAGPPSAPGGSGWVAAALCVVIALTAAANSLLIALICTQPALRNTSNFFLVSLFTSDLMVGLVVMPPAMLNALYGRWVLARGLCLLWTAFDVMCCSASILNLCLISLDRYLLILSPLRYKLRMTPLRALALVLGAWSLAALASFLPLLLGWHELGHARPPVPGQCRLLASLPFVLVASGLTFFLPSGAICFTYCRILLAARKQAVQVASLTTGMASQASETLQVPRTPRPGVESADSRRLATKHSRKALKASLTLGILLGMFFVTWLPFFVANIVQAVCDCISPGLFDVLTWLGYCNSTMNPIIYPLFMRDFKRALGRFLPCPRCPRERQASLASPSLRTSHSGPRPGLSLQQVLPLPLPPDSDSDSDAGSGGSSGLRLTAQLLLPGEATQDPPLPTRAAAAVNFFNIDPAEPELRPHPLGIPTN
Experimental: All test and control compounds were dissolved in 100% DMSO at 10 mM and diluted as indicated in aqueous assay buffer. K1 values are presented at the mean and standard deviation of 3 separate determinations each consisting of the compound tested at each concentration in duplicate.

[9] = test system: rat brain hippocampal slices (CA1 region); test: Long term potentiation in rat hippocampal slices (CA1), fEPSP; format: cell-based; details: weak tetanus 50 Hz, 500 ms; room temperature
[10] = read-out: Receptor Affinity (pKi) 5-Ht2C (converted)
[11] = [3H]-LSD, HEK293-h5-HT6 membranes, read-out: Receptor Affinity (pKi) 5-HT6 (converted)

Row | Structure (SMILES) | Ki [1] | Ki [2] | Ki [3] | reversal of the memory impairment induced by scopolamine (discrimination index d2) ([4]; 0.3 mg/kg i.p.) | Ki [5] | Ki [6] | Ki [7] | Ki [8] | reversal of the memory impairment induced by scopolamine (discrimination index d2) ([4]; 0.3 mg/kg po) | reversal of the memory impairment induced by scopolamine (discrimination index d2) ([4]; 1 mg/kg po) | reversal of scopolamine-induced memory impairment (discrimination index d2) ([4]; 3 mg/kg ip) | Ki [7, 10] | Ki [8, 11] | long term potentiation, increase in slope of fEPSP relative to pre-tetanus baseline [9] | reversal of scopolamine-induced memory impairment (discrimination index d2) ([4]; 0.3 mg/kg ip)
1 | O=C1COc2c(N3CCNCC3)cccc2N1Cc1ccccc1 [Compound 3, 4-benzyl-8-piperazin-1-yl-4H-benzo[1,4]oxazin-3-one] | > 1000 nM | > 1000 nM | > 1000 nM | statistically significant reversal | > 1000 nM | 1.26 nM | 63.1 nM | 0.158 nM | – | – | – | – | – | – | –
2 | O=C1NCc2c(N3CCNCC3)cccc2N1Cc1cccc(F)c1 [Compound 18, 1-(3-Fluoro-benzyl)-5-piperazin-1-yl-3,4-dihydro-1H-quinazolin-2-one] | > 1000 nM | > 1000 nM | > 1000 nM | – | > 1000 nM | 2 nM | 63.1 nM | 0.631 nM | statistically significant reversal | statistically significant reversal | – | – | – | – | –
3 | CN1CCN(c2cccc3c(S(=O)(=O)c4ccccc4)c[nH]c23)CC1 [Compound 32, 3-phenylsulfonyl-7-(4-methyl-piperazin-1-yl)-1H-indole] | > 316 nM | > 316 nM | > 316 nM | – | > 1000 nM | 79.4 nM | – | – | – | – | Statistically significant reversal | 158 nM | 0.316 nM | – | –
4 | N=C(N)NCC1CCCc2cc(S(=O)(=O)c3ccccc3)ccc21 (stereo not drawn) [Compound 52, N-(6-Phenylsulfonyl-1,2,3,4-tetrahydro-naphthalen-1-ylmethyl)-guanidine] | > 1000 nM | > 1000 nM | > 1000 nM | – | > 1000 nM | 794 nM | – | – | – | – | – | 1000 nM | 1.26 nM | – | –
5 | O=c1[nH]c2c(N3CCNCC3)cccc2n1Cc1ccccc1 [Compound 64, 1-Benzyl-4-piperazin-1-yl-1,3-dihydro-benzoimidazol-2-one] | > 316 nM | 200 nM | > 316 nM | – | > 1000 nM | 25.1 nM | – | 0.251 nM | – | – | – | 631 nM | – | – | –
6 | COc1cccc([C@H](O)C2CCN(CCc3ccc(F)cc3)CC2)c1OC [MDL-100907, R-α-(2,3-dimethoxyphenyl)-1-[2-(4-fluorophenyl)ethyl]-4-piperidinemethanol, reference compound] | – | – | – | – | – | – | – | – | – | – | – | – | – | Increase in long term potentiation | Statistically significant reversal
7 | CN(C)CCO/N=C(/C=C/c1ccc(O)cc1)c1ccccc1F [SR46349B, (1Z,2E)-1-(2-fluorophenyl)-3-(4-hydroxyphenyl)prop-2-en-1-one-O-(2-dimethylaminoethyl)oxime, reference compound] | > 1000 nM | > 316 nM | > 1000 nM | – | > 1000 nM | 1 nM | 100 nM | – | – | – | – | – | > 1000 nM | – | –
